This is an account of results in ChEMBL document CHEMBL6177973, “A Novel Compound 3a-M1, from Metabolites of Sinomenine Derivative 3a, Exerts Potent Anti-Aplastic Anemia Activity via IP3R/ORAI-Mediated CTL Ferroptosis” (J Med Chem, 2025).

The source made the active and inactive calls. The rule behind the calls is not given here.

For one data set, the system named is NRK-52E. The data set is described as follows: Cytotoxicity against rat NRK-52E cells assessed as inhibition of cell viability incubated for 72 hrs by CCK8 assay. In kind it is functional, cell-based. For orientation: Tetrazolium assays rely on reduction of a dye to a coloured formazan, in cell work by metabolically active cells.
Data set [1] has as its system Mus musculus. The data set is described as follows: Anti-aplastic anemia activity in C57BL/6J mouse model of immune-mediated bone marrow failure assessed as reduction in proportion of effector CD8+ T cells at 5 to 15 mg/kg, IG qd treated for 12 days by flow cytometry. In kind it is functional, organism-based. The following applies: dose 5-15 mg/kg, time 12.0 day. A general note: Flow cytometry measures light scatter and fluorescence of single cells or particles in a stream.

In data set [2] the test system is CD8-positive T cell. Put plainly: Inhibition of CD3/CD28-activated CD8-positive T cell activation in BALB/c mouse lymph nodes assessed as decrease in TNF-alpha level at 1 to 10 uM incubated for 72 hrs by ELISA. The following applies: Lymph node, dose 1-10 µM. Format: functional, tissue-based. Background: An ELISA detects its analyte on a solid surface through an enzyme-linked reagent.

In data set [3] the test system is CD8-positive T cell. The data set is described as follows: Inhibition of CD3/CD28-activated CD8-positive T cell activation in BALB/c mouse lymph nodes assessed as decrease in IFN-gamma level at 1 to 10 uM incubated for 72 hrs by ELISA. The following applies: Lymph node, dose 1-10 µM. Format: functional, tissue-based.
The subject of data set [4] is CTLL-2. The data set is described as follows: Induction of ferroptosis in mouse CTLL-2 cells assessed as increase in intracellular Ca2+ concentration in presence of 2-APB/CM4620 by Fluo-4 AM dye based analysis. In kind it is functional, cell-based.
The subject of data set [5] is Mus musculus. Put plainly: Anti-aplastic anemia activity in C57BL/6J mouse model of immune-mediated bone marrow failure assessed as decrease in CD8+ T cells at 5 to 15 mg/kg, IG qd treated for 12 days by flow cytometry. Format: functional, organism-based. The note with it: dose 5-15 mg/kg, time 12.0 day.
Data set [6] has as its system Mus musculus. Put plainly: Anti-aplastic anemia activity in C57BL/6J mouse model of immune-mediated bone marrow failure assessed as increase in white blood cells treated intragastrically once daily for 21 days. In kind it is functional, organism-based. The following applies: dose 5-15 mg/kg, route ig, time 21.0 day.
Data set [7] relates to Mus musculus. Put plainly: Anti-aplastic anemia activity in C57BL/6J mouse model of immune-mediated bone marrow failure assessed as decrease in histopathological change in bone marrow treated intragastrically once daily for 21 days by H and E staining based analysis. The note with it: dose 5-15 mg/kg, route ig, time 21.0 day. Format: functional, organism-based.
Data set [8] relates to CTLL-2. The data set is described as follows: Induction of ferroptosis in IL-2-stimulated mouse CTLL-2 cells assessed as increase in intracellular lipid peroxidation level at 30 uM incubated for 6 hrs followed by Fer-1 addition measured after 10 hrs by flow cytometry. The following applies: time 16.0 hrs. In kind it is functional, cell-based.
The test system of data set [9] is CD8-positive T cell. Put plainly: Inhibition of CD3/CD28-activated CD8-positive T cell proliferation in BALB/c mouse lymph nodes incubated for 72 hrs by CFSE staining based flow cytometry. In kind it is functional, tissue-based. The note with it: Lymph node, dose 1-10 µM.
Data set [10] concerns Mus musculus. Put plainly: Anti-aplastic anemia activity in C57BL/6J mouse model of immune-mediated bone marrow failure assessed as increase in hemoglobin level treated intragastrically once daily for 21 days. The following applies: dose 5-15 mg/kg, route ig, time 21.0 day. Format: functional, organism-based.
The next data set deals with HepG2. The data set is described as follows: Cytotoxicity against human HepG2 cells assessed as inhibition of cell viability incubated for 72 hrs by CCK8 assay. The note with it: HepG2, 72 h. Format: functional, cell-based.
Data set [11] relates to CTLL-2. Put plainly: Induction of ferroptosis in mouse CTLL-2 cells assessed as increase in pERK level at 7.5 to 30 uM incubated for 16 hrs by Western blot analysis. Format: functional, cell-based. The following applies: dose 7.5-30 µM.
The next data set relates to IEC-6. Put plainly: Cytotoxicity against rat IEC-6 cells assessed as inhibition of cell viability incubated for 72 hrs by CCK8 assay. In kind it is functional, cell-based. The following applies: IEC-6, 72 h.
Data set [12] can be described thus: Acute toxicity in 12 hr-fasted KM mouse assessed as abnormalities in animal at 10 g/kg, po administered as single dose measured for 14 days. Format: organism-based. The following applies: in vivo, 10000 mg/kg, 336 h, time 14 day.
A short description of data set [13]: AUC in Sprague-Dawley rat at 50 mg/kg, po measured for 0.083 to 24 hrs by HPLC analysis. The note with it: in vivo, time 0.083-24 hrs. In kind it is ADME, organism-based.
Data set [14] relates to Mus musculus. The data set is described as follows: Anti-aplastic anemia activity in BALB/c mouse model of immune-mediated bone marrow failure assessed as restoration of nucleated to red blood cell ratio in bone marrow at 10 mg/kg, po treated for 14 days by H and E staining based analysis. Format: functional, organism-based. The following applies: time 14.0 day.
The test system of data set [15] is Mus musculus. Put plainly: Anti-aplastic anemia activity in C57BL/6J mouse model of immune-mediated bone marrow failure assessed as reduction in cytotoxic T lymphocytes accumulation at 5 to 15 mg/kg, IG qd treated for 12 days. In kind it is functional, organism-based. The note with it: dose 5-15 mg/kg, time 12.0 day.
Data set [16] can be described thus: Induction of ferroptosis in mouse CTLL-2 cells assessed as increase in intracellular Ca2+ concentration incubated for 45 mins by Fluo-4 AM dye based analysis. In kind it is functional, cell-based. The following applies: CTLL-2, 0.75 h.
For data set [17], the system named is CTLL-2. The data set is described as follows: Induction of ferroptosis in mouse CTLL-2 cells assessed as increase in pMEK level at 7.5 to 30 uM incubated for 16 hrs by Western blot analysis. The note with it: dose 7.5-30 µM. In kind it is functional, cell-based.
Data set [18] in a line: Stability in mouse kidney assessed as compound remaining at 50 mg/kg, po measured for 0.083 to 8 hrs by HPLC analysis. The note with it: in vivo, time 0.083-8 hrs. Format: ADME, organism-based.
Data set [19] can be described thus: Drug metabolism in rat plasma assessed as (4bR,9S)-1-(hydroxymethyl)-3,7-dimethoxy-11-methyl-6-oxo-6,8a,9,10-tetrahydro-5H-9,4b-(epiminoethano)phenanthren-4-yl cinnamate metabolite formation at 50 mg/kg, po measured for 24 hrs by HRMS analysis. The note with it: in vivo. Format: ADME, organism-based.
Data set [20] in a line: Drug metabolism in mouse lymph node assessed as cinnamic acid metabolite formation at 50 mg/kg, po measured for 0.083 to 8 hrs by HPLC analysis. In kind it is ADME, organism-based. The note with it: in vivo, time 0.083-8 hrs.
Data set [21] in a line: Drug metabolism in rat plasma assessed as hydrolyzation/double hydroxylation-mediated metabolite formation at 50 mg/kg, po measured for 24 hrs by HRMS analysis. In kind it is ADME, organism-based. The note with it: in vivo.
The nature of data set [22]: Stability in mouse spleen assessed as compound remaining at 50 mg/kg, po measured for 0.083 to 8 hrs by HPLC analysis. Format: ADME, organism-based. The following applies: in vivo, time 0.083-8 hrs.
Data set [23] is described as follows: Drug metabolism in mouse liver assessed as cinnamic acid metabolite formation at 50 mg/kg, po measured for 0.083 to 8 hrs by HPLC analysis. In kind it is ADME, organism-based. The following applies: in vivo, time 0.083-8 hrs.
Data set [24] is described as follows: Stability in mouse plasma at 37 degreeC. Format: ADME, cell-free.
Data set [25] can be described thus: Stability in rat plasma at 50 mg/kg, po measured for 24 hrs by HPLC analysis. Format: ADME, organism-based. The note with it: in vivo.
Data set [26] in a line: Stability in rat plasma at 37 degreeC. In kind it is ADME, cell-free.
Data set [27] can be described thus: Drug metabolism in Sprague-Dawley rat plasma assessed as cinnamic acid metabolite formation at 5 mg/kg, iv measured for 24 hrs by HPLC analysis. In kind it is ADME, organism-based. The note with it: in vivo.
Data set [28] is described as follows: Drug metabolism in mouse plasma assessed as cinnamic acid metabolite formation administered orally by HRMS analysis. In kind it is ADME. The note with it: po.
Data set [29] in a line: Drug metabolism in mouse blood assessed as (4bR,9S)-1-(hydroxymethyl)-3,7-dimethoxy-11-methyl-6-oxo-6,8a,9,10-tetrahydro-5H-9,4b-(epiminoethano)phenanthren-4-yl cinnamate metabolite formation at 50 mg/kg, po measured for 0.083 to 8 hrs by HPLC analysis. Format: ADME, organism-based. The note with it: in vivo, time 0.083-8 hrs.
The nature of data set [30]: Drug metabolism in mouse liver assessed as (4bR,9S)-1-(hydroxymethyl)-3,7-dimethoxy-11-methyl-6-oxo-6,8a,9,10-tetrahydro-5H-9,4b-(epiminoethano)phenanthren-4-yl cinnamate metabolite formation at 50 mg/kg, po measured for 0.083 to 8 hrs by HPLC analysis. In kind it is ADME, organism-based. The note with it: in vivo, time 0.083-8 hrs.
Data set [31] can be described thus: Drug metabolism in rat plasma assessed as cinnamic acid metabolite formation at 50 mg/kg, po measured for 24 hrs by HRMS analysis. The note with it: in vivo. Format: ADME, organism-based.
Data set [32] is described as follows: Drug metabolism in mouse kidney assessed as cinnamic acid metabolite formation at 50 mg/kg, po measured for 0.083 to 8 hrs by HPLC analysis. The following applies: in vivo, time 0.083-8 hrs. In kind it is ADME, organism-based.

For orientation: IC50 means the concentration needed to halve the response being measured. What is called AUC is the area under the concentration-time curve, a measure of exposure. A high value points to more exposure. As usually defined, the EC50 is the concentration needed to bring the measured effect to its halfway point.

In the case of `COC1=C[C@@H]2[C@@H]3Cc4c(CO)cc(OC)c(OC(=O)/C=C/c5ccccc5)c4[C@]2(CCN3C)CC1=O`, the half-maximal inhibitory concentration (IC50) in the data set on NRK-52E came to 705 µM; in the data set on HepG2, 492 µM; in the data set on IEC-6, 84.3 µM. Besides, the result in the data set on Mus musculus [1], in the data set on Mus musculus [5], in the data set with CTLL-2 [11], with Mus musculus [14], in the data set with Mus musculus [15] and with CTLL-2 [17] was Active. Further, the inhibition entry with CD8-positive T cell [2] and with CD8-positive T cell [3] was “Active” in each case. Further, the result in the data set on CTLL-2 [4] and in the data set on CTLL-2 [8] was inactive. Further, the Activity result with Mus musculus [6] was “Dose-dependent-effect”; in the data set on Mus musculus [7] it was “Dose-dependent-effect”; in the data set on Mus musculus [10] it was “Dose-dependent-effect”; in data set [12] it was “Non-toxic”. Also, the inhibition result in the data set on CD8-positive T cell [9] is “Dose-dependent-effect”. Also, in data set [13], the AUC amounted to 15400 ng·h/mL. In addition, the EC50 in [16] came out at 10.1 µM.
`COC1=C[C@@H]2[C@@H]3Cc4c(COC(=O)/C=C/c5ccccc5)cc(OC)c(OC(=O)/C=C/c5ccccc5)c4[C@]2(CCN3C)CC1=O`: the Stability result in data set [18], in [22], in [24], in [25] and in [26] was “Unstable” each time. The Drug metabolism entry in [19], in [20], in data set [21], in [23], in data set [27] and in data set [28] was “metabolite_detected” in each case. The Drug metabolism entry is on record as “metabolite_detected” in data set [29], “metabolite_detected” in data set [30], “metabolite_notdetected” in data set [31] and “metabolite_detected” in data set [32].
